Laboratory results reported in the NIST ThermoML archive (doi:10.1016/j.jct.2006.05.008).

Assay: molar heat capacity at constant pressure
Settings: 101.33 kPa

CCC[n+]1ccn(C)c1.[Br-] [1-methyl-3-propylimidazolium bromide]
Settings | molar heat capacity at constant pressure [J/K/mol]
199.31 K, Crystal, Vacuum adiabatic calorimetry | 164.75
199.46 K, Glass, Small (less than 1 g) adiabatic calorimetry | 175.22
200.05 K, Glass, Small (less than 1 g) adiabatic calorimetry | 176.21
200.67 K, Crystal, Vacuum adiabatic calorimetry | 166
200.97 K, Metastable crystal, Small (less than 1 g) adiabatic calorimetry | 168.83
201.03 K, Crystal, Vacuum adiabatic calorimetry | 166.26
201.36 K, Crystal, Vacuum adiabatic calorimetry | 166.53
202.03 K, Crystal, Vacuum adiabatic calorimetry | 167.06
202.22 K, Glass, Small (less than 1 g) adiabatic calorimetry | 178.79
202.47 K, Glass, Small (less than 1 g) adiabatic calorimetry | 180.24
203.09 K, Crystal, Vacuum adiabatic calorimetry | 167.78
203.39 K, Crystal, Vacuum adiabatic calorimetry | 168.1
203.43 K, Crystal, Vacuum adiabatic calorimetry | 167.91
203.43 K, Metastable crystal, Small (less than 1 g) adiabatic calorimetry | 170.24
204.75 K, Crystal, Vacuum adiabatic calorimetry | 169.11
204.84 K, Glass, Small (less than 1 g) adiabatic calorimetry | 187.91
204.96 K, Glass, Small (less than 1 g) adiabatic calorimetry | 184.36
205.16 K, Crystal, Vacuum adiabatic calorimetry | 169.18
205.49 K, Crystal, Vacuum adiabatic calorimetry | 169.21
205.88 K, Metastable crystal, Small (less than 1 g) adiabatic calorimetry | 171.68
206.12 K, Crystal, Vacuum adiabatic calorimetry | 170
207.12 K, Glass, Small (less than 1 g) adiabatic calorimetry | 199.89
207.47 K, Crystal, Vacuum adiabatic calorimetry | 170.79
207.56 K, Crystal, Vacuum adiabatic calorimetry | 170.75
207.61 K, Glass, Small (less than 1 g) adiabatic calorimetry | 196
208.34 K, Metastable crystal, Small (less than 1 g) adiabatic calorimetry | 173.15
208.84 K, Crystal, Vacuum adiabatic calorimetry | 171.68
209.31 K, Glass, Small (less than 1 g) adiabatic calorimetry | 214.39
209.63 K, Crystal, Vacuum adiabatic calorimetry | 172.23
210.02 K, Glass, Small (less than 1 g) adiabatic calorimetry | 225.97
210.2 K, Crystal, Vacuum adiabatic calorimetry | 172.56
210.79 K, Metastable crystal, Small (less than 1 g) adiabatic calorimetry | 174.52
211.34 K, Glass, Small (less than 1 g) adiabatic calorimetry | 239.57
211.57 K, Crystal, Vacuum adiabatic calorimetry | 173.4
211.7 K, Crystal, Vacuum adiabatic calorimetry | 173.55
212.2 K, Liquid, Small (less than 1 g) adiabatic calorimetry | 259.73
212.93 K, Crystal, Vacuum adiabatic calorimetry | 174.3
213.23 K, Metastable crystal, Small (less than 1 g) adiabatic calorimetry | 176.24
213.27 K, Glass, Small (less than 1 g) adiabatic calorimetry | 257.87
213.77 K, Crystal, Vacuum adiabatic calorimetry | 174.86
214.3 K, Crystal, Vacuum adiabatic calorimetry | 175.3
214.46 K, Liquid, Small (less than 1 g) adiabatic calorimetry | 259.1
215.25 K, Liquid, Small (less than 1 g) adiabatic calorimetry | 259.12
215.66 K, Crystal, Vacuum adiabatic calorimetry | 176.2
215.67 K, Metastable crystal, Small (less than 1 g) adiabatic calorimetry | 177.87
215.84 K, Crystal, Vacuum adiabatic calorimetry | 176.33
216.73 K, Liquid, Small (less than 1 g) adiabatic calorimetry | 260.04
217.03 K, Crystal, Vacuum adiabatic calorimetry | 177.11
217.09 K, Liquid, Small (less than 1 g) adiabatic calorimetry | 259.63
217.24 K, Liquid, Small (less than 1 g) adiabatic calorimetry | 260
217.9 K, Liquid, Small (less than 1 g) adiabatic calorimetry | 259.51
217.92 K, Crystal, Vacuum adiabatic calorimetry | 177.82
218.11 K, Metastable crystal, Small (less than 1 g) adiabatic calorimetry | 179.69
218.4 K, Crystal, Vacuum adiabatic calorimetry | 178.04
219.01 K, Liquid, Small (less than 1 g) adiabatic calorimetry | 260.43
219.18 K, Liquid, Small (less than 1 g) adiabatic calorimetry | 259.88
219.24 K, Liquid, Small (less than 1 g) adiabatic calorimetry | 260.35
219.77 K, Crystal, Vacuum adiabatic calorimetry | 179.06
219.98 K, Liquid, Small (less than 1 g) adiabatic calorimetry | 259.88
219.99 K, Crystal, Vacuum adiabatic calorimetry | 179.17
220.54 K, Metastable crystal, Small (less than 1 g) adiabatic calorimetry | 181.19
221.14 K, Crystal, Vacuum adiabatic calorimetry | 179.92
221.23 K, Liquid, Small (less than 1 g) adiabatic calorimetry | 260.68
221.29 K, Liquid, Small (less than 1 g) adiabatic calorimetry | 260.8
222.07 K, Crystal, Vacuum adiabatic calorimetry | 180.63
222.07 K, Liquid, Small (less than 1 g) adiabatic calorimetry | 260.23
222.51 K, Crystal, Vacuum adiabatic calorimetry | 180.9
222.97 K, Metastable crystal, Small (less than 1 g) adiabatic calorimetry | 182.89
223.23 K, Liquid, Small (less than 1 g) adiabatic calorimetry | 261
223.57 K, Liquid, Small (less than 1 g) adiabatic calorimetry | 261.15
223.88 K, Crystal, Vacuum adiabatic calorimetry | 181.95
224.15 K, Crystal, Vacuum adiabatic calorimetry | 182.18
224.16 K, Liquid, Small (less than 1 g) adiabatic calorimetry | 260.59
225.24 K, Liquid, Small (less than 1 g) adiabatic calorimetry | 261.29
225.25 K, Crystal, Vacuum adiabatic calorimetry | 182.95
225.39 K, Metastable crystal, Small (less than 1 g) adiabatic calorimetry | 184.41
225.86 K, Liquid, Small (less than 1 g) adiabatic calorimetry | 261.58
226.23 K, Crystal, Vacuum adiabatic calorimetry | 183.69
226.24 K, Liquid, Small (less than 1 g) adiabatic calorimetry | 260.96
226.63 K, Crystal, Vacuum adiabatic calorimetry | 183.97
227.24 K, Liquid, Small (less than 1 g) adiabatic calorimetry | 261.74
227.8 K, Metastable crystal, Small (less than 1 g) adiabatic calorimetry | 186.11
228 K, Crystal, Vacuum adiabatic calorimetry | 184.96
228.15 K, Liquid, Small (less than 1 g) adiabatic calorimetry | 262.01
228.31 K, Crystal, Vacuum adiabatic calorimetry | 185.39
228.33 K, Liquid, Small (less than 1 g) adiabatic calorimetry | 261.35
229.25 K, Liquid, Small (less than 1 g) adiabatic calorimetry | 262.21
229.38 K, Crystal, Vacuum adiabatic calorimetry | 186.04
230.21 K, Metastable crystal, Small (less than 1 g) adiabatic calorimetry | 187.89
230.39 K, Crystal, Vacuum adiabatic calorimetry | 186.96
230.42 K, Liquid, Small (less than 1 g) adiabatic calorimetry | 261.8
230.44 K, Liquid, Small (less than 1 g) adiabatic calorimetry | 262.44
230.75 K, Crystal, Vacuum adiabatic calorimetry | 187.19
231.26 K, Liquid, Small (less than 1 g) adiabatic calorimetry | 262.65
232.13 K, Crystal, Vacuum adiabatic calorimetry | 188.21
232.47 K, Crystal, Vacuum adiabatic calorimetry | 188.55
232.51 K, Liquid, Small (less than 1 g) adiabatic calorimetry | 262.24
232.62 K, Metastable crystal, Small (less than 1 g) adiabatic calorimetry | 189.5
232.74 K, Liquid, Small (less than 1 g) adiabatic calorimetry | 263.08
233.01 K, Crystal, Vacuum adiabatic calorimetry | 189.36
233.27 K, Liquid, Small (less than 1 g) adiabatic calorimetry | 263.01
233.5 K, Crystal, Vacuum adiabatic calorimetry | 189.25
234.55 K, Crystal, Vacuum adiabatic calorimetry | 190.14
234.61 K, Liquid, Small (less than 1 g) adiabatic calorimetry | 262.58
234.88 K, Crystal, Vacuum adiabatic calorimetry | 190.37
235.03 K, Liquid, Small (less than 1 g) adiabatic calorimetry | 263.49
235.28 K, Liquid, Small (less than 1 g) adiabatic calorimetry | 263.42
235.72 K, Metastable crystal, Small (less than 1 g) adiabatic calorimetry | 191.63
236.26 K, Crystal, Vacuum adiabatic calorimetry | 191.4
236.63 K, Crystal, Vacuum adiabatic calorimetry | 191.86
236.7 K, Liquid, Small (less than 1 g) adiabatic calorimetry | 263.12
237.29 K, Liquid, Small (less than 1 g) adiabatic calorimetry | 263.79
237.33 K, Liquid, Small (less than 1 g) adiabatic calorimetry | 263.86
237.63 K, Crystal, Vacuum adiabatic calorimetry | 192.56
238.14 K, Metastable crystal, Small (less than 1 g) adiabatic calorimetry | 193.62
238.71 K, Crystal, Vacuum adiabatic calorimetry | 193.49
238.79 K, Liquid, Small (less than 1 g) adiabatic calorimetry | 264.33
239.01 K, Crystal, Vacuum adiabatic calorimetry | 193.7
239.3 K, Liquid, Small (less than 1 g) adiabatic calorimetry | 264.2
239.63 K, Liquid, Small (less than 1 g) adiabatic calorimetry | 264.39
240.21 K, Liquid, Small (less than 1 g) adiabatic calorimetry | 263.92
240.38 K, Crystal, Vacuum adiabatic calorimetry | 194.84
240.53 K, Metastable crystal, Small (less than 1 g) adiabatic calorimetry | 195.14
240.78 K, Crystal, Vacuum adiabatic calorimetry | 195.37
240.89 K, Liquid, Small (less than 1 g) adiabatic calorimetry | 264.51
241.32 K, Liquid, Small (less than 1 g) adiabatic calorimetry | 264.76
241.76 K, Crystal, Vacuum adiabatic calorimetry | 196.04
241.93 K, Liquid, Small (less than 1 g) adiabatic calorimetry | 265.02
242.32 K, Liquid, Small (less than 1 g) adiabatic calorimetry | 264.51
242.39 K, Crystal, Vacuum adiabatic calorimetry | 197.23
242.86 K, Crystal, Vacuum adiabatic calorimetry | 197.07
242.91 K, Metastable crystal, Small (less than 1 g) adiabatic calorimetry | 197.2
243.14 K, Crystal, Vacuum adiabatic calorimetry | 197.19
243.34 K, Liquid, Small (less than 1 g) adiabatic calorimetry | 265.19
244.23 K, Liquid, Small (less than 1 g) adiabatic calorimetry | 265.58
